Measured values from patent US8754057B2, “Inhibition of apoptosis-specific eIF-5A(eIF-5A1″) with antisense oligonucleotides and siRNA as anti-inflammatory therapeutics” (Senesco Technologies, Inc., priority 2003, dated 2014).

Tested on: lamina cribrosa cell line #517
Assay: Hoescht staining apoptosis of siRNA-transfected lamina cribrosa cells treated with TNF-α and camptothecin
Format: cell-based, human
Details: 72 h after siRNA transfection, 24 h TNF-α plus camptothecin
Protocol: Lamina cribrosa cell line #517 cells were seeded at 7500 cells per well onto an 8-well culture slide. Three days later the LC cells were transfected with either apoptosis-specific eIF-5A siRNA #1 (SEQ ID NO:30) or control siRNA #5 (SEQ ID NO:34). 72 hours after transfection, the transfected cells were treated with 10 ng/ml TNF-α plus 50 μM camptothecin. Twenty-four hours later the cells were stained with Hoescht 33258 and viewed by fluorescence microscopy using a UV filter. Cells with brightly stained condensed or fragmented nuclei were counted as apoptotic. The results of two independent experiments are represented here.
Small inhibitory RNAs (siRNAs) directed against human apoptosis-specific eIF-5A were used to specifically suppress expression of eIF5A in lamina cribrosa cells. Six siRNAs were generated by in vitro transcription using the Silencer™ siRNA Construction Kit (Ambion Inc.), Four siRNAs were generated against human apoptosis-specific eIF-5A (siRNAs #1 to #4). […] The siRNAs were generated according to the manufacturer's protocol. […]
Transfected cells that had been treated with TNF-α and camptothecin for 24 hours were stained with Hoescht 33258 in order to determine the percentage of cells undergoing apoptosis. […] Cells with brightly stained or fragmented nuclei were scored as apoptotic. A minimum of 200 cells were counted per well. […]

siRNA #1: siRNA against human apoptosis-specific eIF-5A (SEQ ID NO:30); target 5′ AAAGGAATGACTTCCAGCTGA 3′ (SEQ ID NO: 81) (AAAGGAAUGACUUCCAGCUGATT; RNA, all phosphodiester, T or U not given here; listed as Homo sapiens)
reduce apoptosis of the LC line #517: 53%
